Here are results for 17 compounds from patent publication US10752587B2, “Homobispiperidinyl derivatives as liver X receptor beta agonists, compositions and their use” (Merck Sharp & Dohme Corp., priority 2015, dated 2020).

Assay [1] concerns the target T1, glutathione-S-transferase (GST) tagged LXRalpha LBD (ligand binding domain) (Homo sapiens, UniProt Q13133).
T1 construct: purchased Invitrogen pv4655
T1 sequence (Q13133 209-447 limits assumed): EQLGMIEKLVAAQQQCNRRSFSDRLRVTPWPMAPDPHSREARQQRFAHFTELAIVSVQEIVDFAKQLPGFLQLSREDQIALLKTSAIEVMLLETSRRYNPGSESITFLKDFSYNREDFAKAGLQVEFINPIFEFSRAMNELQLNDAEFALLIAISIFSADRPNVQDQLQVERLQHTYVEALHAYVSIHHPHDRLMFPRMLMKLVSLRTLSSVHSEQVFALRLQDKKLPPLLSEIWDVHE
Put plainly: LanthaScreen TR-FRET Liver X Receptor Coactivator Assay, co-activator recruitment to LXRalpha LBD. The assay is classed as biochemical. In a few lines: (§1)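 LXRα- or LXRβ-LBD protein was added to test compounds, then fluorescein-labelled coactivator peptide plus Tb-anti-GST antibody; after room-temperature incubation, TR-FRET was read. Inflection point (IP) and Emax were expressed relative to the dual agonist reference T0901317.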

The target in assay [2] is T2, glutathione-S-transferase (GST) tagged LXRbeta LBD (ligand binding domain) (Homo sapiens, UniProt P55055).
T2 construct: purchased Invitrogen pv4658.pps
T2 sequence (P55055 222-460 limits assumed): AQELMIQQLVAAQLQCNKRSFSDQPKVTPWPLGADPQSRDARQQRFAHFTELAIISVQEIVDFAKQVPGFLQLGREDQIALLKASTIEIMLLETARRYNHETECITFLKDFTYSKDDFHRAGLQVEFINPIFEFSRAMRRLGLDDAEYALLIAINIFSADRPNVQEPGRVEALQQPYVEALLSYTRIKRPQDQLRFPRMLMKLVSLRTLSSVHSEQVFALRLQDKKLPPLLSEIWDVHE
The assay is described as follows: LanthaScreen TR-FRET Liver X Receptor Coactivator Assay, co-activator recruitment to LXRbeta LBD. The class given is biochemical. In short, it runs like this: as §1

Where [3] appears, read: efficacy at max dose, in relation to reference dual agonist T0901317, read-out: LXR alpha Activity @ max dose (%).
The mark [4] stands for this setting: potency (Inflection Point, IP), co-activator recruitment to LXRalpha LBD, in relation to T0901317.
The mark [5] stands for this setting: efficacy at max dose, in relation to reference dual agonist T0901317, read-out: LXR beta Activity @ max dose (%).
Where [6] appears, read: potency (Inflection Point, IP), co-activator recruitment to LXRbeta LBD, in relation to T0901317, read-out: LXR beta IP.
The mark [7] stands for this setting: LXR beta IP (nM), potency (Inflection Point, IP), co-activator recruitment to LXRbeta LBD, in relation to T0901317.
Where [8] appears, read: read-out: LXR beta Activity @ max dose (%).
Setting [9] is: potency (Inflection Point, IP), co-activator recruitment to LXRalpha LBD, in relation to T0901317, read-out: LXR alpha IP.
Setting [10] is: co-activator recruitment to GST-LXRalpha LBD, TR-FRET.
[11] abbreviates: efficacy in relation to reference dual agonist T0901317, read-out: LXR alpha Activity @ max dose.
The mark [12] stands for this setting: co-activator recruitment to GST-LXRbeta LBD, TR-FRET, read-out: LXR beta IP (Inflection Point, potency).
Where [13] appears, read: efficacy in relation to reference dual agonist T0901317, read-out: LXR beta Activity @ max dose.
[14] abbreviates: co-activator recruitment to GST-LXRalpha LBD, TR-FRET, read-out: LXR alpha IP (Inflection Point, potency).

Where two headings read alike, the source gives them in different places.

Take `CN(C)C(=O)c1ccc(N2CCC(SC3CCN(C(=O)[C@](O)(c4cc(Cl)cc(Cl)c4)C(F)(F)F)CC3)CC2)nc1Cl` [Example 9-3, 2-chloro-6-[4-({1-[(2R)-2-(3,5-dichlorophenyl)-3,3,3-trifluoro-2-hydroxypropanoyl]-piperidin-4-yl}-sulfanyl)piperidin-1-yl]-N,N-dimethyl-pyridine-3-carboxamide]: the Emax in assay [1] (setting [3]) was determined as 10%; in assay [2] (setting [5]), 63%. Further, in assay [1] (setting [4]), the “LXR alpha IP (nM)” value is “NO IP”. Besides, in assay [2] (setting [6]), the EC50 was 14 nM.

Regarding `COc1cccc([C@@](O)(C(=O)N2CCC(SC3CCN(c4ccc(C(=O)N(C)C)c(Cl)c4)CC3)CC2)C(F)(F)F)c1` [Example 10-1, (R)-2-chloro-N,N-dimethyl-4-(4-(1-(3,3,3-trifluoro-2-hydroxy-2-(3-methoxyphenyl)propanoyl)piperidin-4-ylthio)piperidin-1-yl)benzamide], the figures for the Emax in assay [1] (setting [3]) and in assay [2] (setting [8]) were 8% and 56%, respectively. In addition, in assay [1] (setting [4]), the “LXR alpha IP (nM)” value is “NO IP”. Further, the EC50 in assay [2] (setting [7]) was 22 nM.

As for `CNC(=O)c1ccc(N2CCC(SC3CCN(C(=O)[C@](O)(c4cccc(OC)c4)C(F)(F)F)CC3)CC2)nc1Cl` [Example 11-1, (R)-2-chloro-N-methyl-6-(4-(1-(3,3,3-trifluoro-2-hydroxy-2-(3-methoxyphenyl)propanoyl)piperidin-4-ylthio)piperidin-1-yl)nicotinamide], the Emax worked out at 17% in assay [1] (setting [3]) and 93% in assay [2] (setting [8]). Besides, in assay [1] (setting [4]), the “LXR alpha IP (nM)” value is on record as “NO IP”. The EC50 in assay [2] (setting [7]) turned out to be 17 nM.

`CCOc1cccc([C@@](O)(C(=O)N2CCC(SC3CCN(c4ccc(C(=O)NC)c(Cl)n4)CC3)CC2)C(F)(F)F)c1` [Example 11-2, 2-chloro-6-[4-({1-[(2R)-2-(3-ethoxyphenyl)-3,3,3-trifluoro-2-hydroxypropanoyl]-piperidin-4-yl}-sulfanyl)piperidin-1-yl]-N-methyl-pyridine-3-carboxamide]: the Emax in assay [1] (setting [3]) worked out at 10%; in assay [2] (setting [5]) it was 95%. Moreover, the “LXR alpha IP (nM)” value in assay [1] (setting [4]) is reported as “NO IP”. For the same compound, the EC50 in assay [2] (setting [6]) was 22 nM.

Take `NC(=O)c1ccc(N2CCC(CC3CCN(C(=O)[C@](O)(c4cc(Cl)cc(Cl)c4)C(F)(F)F)CC3)CC2)cc1Cl` [Example 12-1, 2-chloro-4-[4-({1-[(2R)-2-(3,5-dichlorophenyl)-3,3,3-trifluoro-2-hydroxypropanoyl]piperidin-4-yl}methyl)piperidin-1-yl]benzamide]: the Emax in assay [1] (setting [3]) turned out to be 9%; in assay [2] (setting [5]), 37%. For the same compound, in assay [1] (setting [4]), the “LXR alpha IP (nM)” value is “NO IP”. Besides, in assay [2] (setting [6]), the EC50 came out at 3 nM.

`NC(=O)c1ccc(N2CCC(CC3CCN(C(=O)[C@](O)(c4ccccc4)C(F)(F)F)CC3)CC2)cc1Cl` [Example 12-2, 2-chloro-4-[4-({1-[(2R)-3,3,3-trifluoro-2-hydroxy-2-phenyl-propanoyl]piperidin-4-yl}methyl)piperidin-1-yl]benzamide]: the Emax was found to be 52% in assay [1] (setting [3]) and 74% in assay [2] (setting [5]). The EC50 in assay [1] (setting [9]) is 58 nM; in assay [2] (setting [6]), 9 nM.

Regarding `COc1cc(F)cc([C@@](O)(C(=O)N2CCC(CC3CCN(c4ccc(C(N)=O)c(Cl)c4)CC3)CC2)C(F)(F)F)c1` [Example 12-3, 2-chloro-4-[4-({1-[(2R)-3,3,3-trifluoro-2-(3-fluoro-5-methoxy-phenyl)-2-hydroxy-propanoyl]piperidin-4-yl}methyl)-piperidin-1-yl]-benzamide], the Emax in assay [1] (setting [3]) stood at 20%; in assay [2] (setting [5]), 79%. In addition, the EC50 in assay [1] (setting [9]) turned out to be 49 nM; in assay [2] (setting [6]) it was 5 nM.

For `COc1cccc([C@@](O)(C(=O)N2CCC(CC3CCN(c4ccc(C(N)=O)c(Cl)c4)CC3)CC2)C(F)(F)F)c1` [Example 12-4, 2-chloro-4-[4-({1-[(2R)-3,3,3-trifluoro-2-hydroxy-2-(3-methoxyphenyl)-propanoyl]piperidin-4-yl}methyl)piperidin-1-yl]benzamide], the Emax amounted to 13% in assay [1] (setting [3]) and 55% in assay [2] (setting [5]). Further, in assay [1] (setting [4]), the “LXR alpha IP (nM)” value is reported as “NO IP”. Further, the EC50 in assay [2] (setting [6]) amounted to 5 nM.

For the compound `NC(=O)c1ccc(N2CCC(CC3CCN(C(=O)[C@](O)(c4cccc(Cl)c4)C(F)(F)F)CC3)CC2)cc1Cl` [Example 12-5, 2-chloro-4-[4-({1-[(2R)-2-(3-chlorophenyl)-3,3,3-trifluoro-2-hydroxypropanoyl]-piperidin-4-yl}-methyl)piperidin-1-yl]benzamide], the Emax in assay [1] (setting [3]) came to 38%; in assay [2] (setting [5]), 76%. Moreover, the EC50 in assay [1] (setting [9]) turned out to be 32 nM; in assay [2] (setting [6]) it was 4 nM.

Take `CCc1cccc([C@@](O)(C(=O)N2CCC(CC3CCN(c4ccc(C(N)=O)c(Cl)c4)CC3)CC2)C(F)(F)F)c1` [Example 12-6, 2-chloro-4-[4-({1-[(2R)-2-(3-ethylphenyl)-3,3,3-trifluoro-2-hydroxy-propanoyl]piperidin-4-yl}methyl)piperidin-1-yl]benzamide]: the values for the Emax in assay [1] (setting [3]) and in assay [2] (setting [5]) were 23% and 40%, respectively. In addition, the EC50 in assay [1] (setting [9]) stood at 30 nM; in assay [2] (setting [6]), 7 nM.

`CC(C)Oc1cccc([C@@](O)(C(=O)N2CCC(CC3CCN(c4ccc(C(N)=O)c(Cl)c4)CC3)CC2)C(F)(F)F)c1` [Example 12-7, 2-chloro-4-{4-[(1-{(2R)-3,3,3-trifluoro-2-hydroxy-2-[3-(1-methylethoxy)phenyl)-propanoyl}piperidin-4-yl)methyl]piperidin-1-yl}benzamide]: the “LXR alpha IP (Inflection Point, potency)” value in assay [1] (setting [10]) is listed as “NO IP”. For the same compound, the results for the Emax in assay [1] (setting [11]) and in assay [2] (setting [13]) were 12% and 33%, respectively. Moreover, in assay [2] (setting [12]), the EC50 stood at 6 nM.

On to `CCOc1cccc([C@@](O)(C(=O)N2CCC(CC3CCN(c4ccc(C(N)=O)c(Cl)c4)CC3)CC2)C(F)(F)F)c1` [Example 12-8, 2-chloro-4-[4-({1-[(2R)-2-(3-ethoxyphenyl)-3,3,3-trifluoro-2-hydroxypropanoyl]-piperidin-4-yl}methyl)-piperidin-1-yl]-benzamide], for which the “LXR alpha IP (Inflection Point, potency)” value in assay [1] (setting [10]) was “NO IP”. Besides, the figures for the Emax in assay [1] (setting [11]) and in assay [2] (setting [13]) were 12% and 46%, respectively. In assay [2] (setting [12]), the EC50 is 4 nM.

Regarding `NC(=O)c1ccc(N2CCC(CC3CCN(C(=O)C(O)(c4cc(F)cc(Cl)c4)C(F)(F)F)CC3)CC2)cc1Cl` (centres unmarked) [Example 12-9, 2-chloro-4-[4-({1-[2-(3-chloro-5-fluorophenyl)-3,3,3-trifluoro-2-hydroxy-propanoyl]piperidin-4-yl}methyl)piperidin-1-yl]benzamide], the EC50 in assay [1] (setting [14]) turned out to be 47 nM; in assay [2] (setting [12]) it was 8 nM. The results for the Emax in assay [1] (setting [11]) and in assay [2] (setting [13]) were 52% and 98%, respectively.

Regarding `CC(C)c1cccc([C@@](O)(C(=O)N2CCC(CC3CCN(c4ccc(C(N)=O)c(Cl)c4)CC3)CC2)C(F)(F)F)c1` [Example 12-10, 2-chloro-4-{4-[(1-{(2R)-3,3,3-trifluoro-2-hydroxy-2-[3-(1-methylethyl)phenyl]-propanoyl}piperidin-4-yl)methyl]piperidin-1-yl}benzamide], the EC50 in assay [1] (setting [14]) was determined as 85 nM; in assay [2] (setting [12]), 8 nM. For the same compound, the Emax worked out at 26% in assay [1] (setting [11]) and 51% in assay [2] (setting [13]).

Take `CN(C)C(=O)c1ccc(N2CCC(CC3CN(S(=O)(=O)c4ccccc4)C3)CC2)cc1Cl` [Example 13-1, 2-chloro-N,N-dimethyl-4-(4-((1-(phenylsulfonyl)azetidin-3-yl)methyl)piperidin-1-yl)benzamide]: the EC50 in assay [1] (setting [14]) was determined as 2480 nM; in assay [2] (setting [12]), 61 nM. The results for the Emax in assay [1] (read-out: LXR alpha Activity @ max dose) and in assay [2] (read-out: LXR beta Activity @ max dose) were 37% and 73%, respectively.

As for `COc1cccc(S(=O)(=O)N2CC(CC3CCN(c4ccc(C(=O)N(C)C)c(Cl)c4)CC3)C2)c1` [Example 13-2, 2-chloro-4-[4-({1-[(3-methoxyphenyl)-sulfonyl]azetidin-3-yl}methyl)piperidin-1-yl]-N,N-dimethyl-benzamide], the EC50 in assay [1] (setting [14]) amounted to 3390 nM; in assay [2] (setting [12]), 96 nM. Further, the Emax in assay [1] (setting [11]) came to 26%; in assay [2] (setting [13]), 70%.

Turning to `COc1cccc(CS(=O)(=O)N2CC(CC3CCN(c4ccc(C(=O)N(C)C)c(Cl)c4)CC3)C2)c1` [Example 13-3, 2-chloro-4-[4-({1-[(3-methoxybenzyl)-sulfonyl]azetidin-3-yl}methyl)piperidin-1-yl]-N,N-dimethyl-benzamide], in assay [1] (setting [10]), the “LXR alpha IP (Inflection Point, potency)” value is recorded as “NO IP”. Also, the Emax was 0% in assay [1] (setting [11]) and 26% in assay [2] (setting [13]). Also, the EC50 in assay [2] (setting [12]) stood at 604 nM.
